The values that follow are results of earlier work, collected in patent publication US10624856B2, “Non-extractable oral solid dosage forms” (Dharma Laboratories LLC, priority 2018, dated 2020).

For data set [1] the following is noted: in vivo.

The structures appear in SMILES notation.

With `Oc1ccc2c3c1O[C@H]1[C@H](O)CC[C@@]4(O)[C@@H](C2)N(CC2CC2)CC[C@]314` [6-beta-naltrexol], in data set [1], the half-life (usually how long it takes for the measured level to halve) was 16 h.
`C=CCN1CC[C@]23c4c5ccc(O)c4O[C@H]2C(=O)CC[C@@]3(O)[C@H]1C5` [Naloxone]: the “oral bioavailability (in words)” value in data set [1] (po) is on record as “low”.
In the case of `O=C1CC[C@@]2(O)[C@H]3Cc4ccc(O)c5c4[C@@]2(CCN3CC2CC2)[C@H]1O5` [Naltrexone], the Plasma protein binding was 21%.
